Patent publication US12102685B2, “Immodulator peptides covalently modified with small molecules” (priority 2020, dated 2024)
Peptide text beside a SMILES is read from it.

Legend:
[1] = Binding to heparin-agarose spin column (x3D); settings: 1 ug SA488-labelled peptide
Experimental: 1 ug Streptavidin-Alexa 488 conjugate (SA488)-labelled IM peptide in PBS buffer was loaded on a spin column packed with 0.2 ml bed volume heparin-agarose (G-Biosciences, St. Louis, MO). The column was centrifuged for 2 min at 2,000 G and the flow-through was collected. The column was then washed with 0.3 ml 1% BSA in PBS buffer and the column spin repeated. Flowthrough and wash were pooled and duplicate 20 uL aliquots counted in a standard fluorometer (excitation/emission 485/525 nm). Results are expressed as percentage of input counts that bound the heparin-agarose column, versus flowthrough. Percent counts bound to heparin-agarose resin are shown below. IM3, IM5 and IM6 peptides bind heparin-agarose in this assay.

[2] = Iron binding of separately labeled peptides (x2E e); settings: each peptide labeled separately; IM3 = 100; ferric iron
Experimental: (§1) Experiments were conducted by the procedure described above. Ferric iron-charged NTA-coated 96-well plates were used as described. 1 ug/well immodulator peptide complexed to Alexa-488-labeled streptavidin in PBS buffer was added (60 min at room temperature). The plate was washed and counted in a standard fluorometer (excitation/emission: 485/525 nm). The results (fluorescence) show improved iron-binding by the three peptides extended C-terminally by the AVD, (dA)VD, and FVS tripeptides. **p<0.01 vs IM3 control IM3: 200±29; IM4: 45±37**; IM5: 130±77; IM3AVD: 434±29**; IM3dAVD: 418±28**; IM3FVS: 371±33** • (c) Competition assay. The same procedure was used as the preceding experiment, except that 375 ng/well labeled IM3 peptide was used, plus 10× of the indicated unlabeled peptide. ‘No competing peptide’ control value was set to 100. *p<0.05 vs “no peptide” control Competing Peptide/Fluorescence • None: 100±38; IM4: 125±26; IM3: 63±27*; IM5: 40±14*; IM3AVD: 10±28* • (d) Competition assay. The same procedure was used as the preceding experiment, except that labeled IM3AVD peptide was used. **p<0.01 vs “no competing peptide” control • None: 100±9; IM4: 144±44; IM3: 35±16**; IM5: 30±19**; IM3AVD: 9±19** • (e) The same procedure was used as the preceding experiment, except that each peptide was labeled with Alexa-488-labeled streptavidin in PBS buffer and used separately. Binding to IM3 was set to =100. *p<0.05, **p<0.01 vs IM3 control. (Labeled Peptide/Fluorescence) IM1: 1.8±0.4**; IM2: 3.0±1.8**; IM3: 100.0±16.8; IM4: 7.2±1.7*; IM5: 86.7±6.4; IM6: 85.9±14.9; IM3AVD:137.7±11.8*; IM3dAVD:147.4±22.9*; IM3FVS: 101.5±10.5.

[3] = Strength of binding to iron, plate assay (x2E b); settings: 1 ug/well peptide complexed to Alexa-488-streptavidin; ferric iron
Experimental: Immodulator peptides were extended C-terminally by three amino acids, to include a valine residue that is highly conserved in the “thyroglobulin type 1 motif”. The reasoning behind this attempt is that a longer conserved sequence might lead to a tighter fold overall, which might in turn result in increased metal-binding avidity. • (b) Strength of binding to iron was evaluated by plate assay.
as §1

[4] = molecular target: T1, AA111-228 DNA-binding domain of RXR-alpha (RXRa-DBD) (Homo sapiens, UniProt P19793); assay: Binding to RXRa-DBD (x3A); settings: 1 ug/well RXRa-DBD, 800 ng/well SA488-labelled peptide; background subtracted
T1 construct: purchased Abcam, Cambridge, MA
T1 sequence (P19793 111-228): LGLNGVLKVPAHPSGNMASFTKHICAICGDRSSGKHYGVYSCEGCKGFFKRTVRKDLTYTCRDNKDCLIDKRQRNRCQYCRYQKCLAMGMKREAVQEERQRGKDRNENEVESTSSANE
Experimental: Binding of immodulator peptides to AA111-228 DNA-binding domain of RXR-alpha (RXRa-DBD). 1 ug/well recombinant RXRa-DBD (Abcam, Cambridge, MA) was adsorbed to wells of a 96-well plate for 60 minutes at RT, then blocked with 200 uL 1% BSA in PBS buffer overnight. Plate was washed and 800 ng/well Streptavidin-Alexa 488 conjugate (SA488)-labelled IM peptide was added. The plate was incubated for 60 min at room temperature, washed and counted in a standard fluorometer (excitation/emission 485/525 nm). Background (buffer alone) was subtracted.

[5] = test system: COL1 in HFF-1 dermal fibroblasts; assay: Collagen-1 ELISA in HFF-1 dermal fibroblasts (x11A); format: cell-based; settings: peptide 2 uM, 72 hour; control (buffer) = 100
Experimental: Immune modulation functions of immodulator peptides have potential untility in the field of cosmetics. HFF-1 cell line was obtained from American Type Culture Collection (ATCC). Cells were grown in a T-75 flask in DMEM Medium containing 10% fetal bovine serum and penicillin-streptomycin at 37° C. in a humidified, 5% CO2 incubator. Cells ([…], 2,000 cells/well) were plated in a 96-well plate and incubated overnight at 37° C. in a humidified, 5% CO2 incubator. Next day, […] of compounds were added (quadruplicate wells). After 72 hour incubation with the compound, supernatants were collected for Collagen-1 ELISA assay and cell viability was measured in a luminometer after the addition of […] CellTiterGlo reagent (Promega Inc, Madison, WI) as recommended by the manufacturer.
Collagen stimulating activity of immodulator peptides in HFF-1 dermal fibroblasts. Peptides were added to cells at 2 uM. COL1 immunoreactivity was measured in the supernatants of cultured cells by ELISA using a rabbit monoclonal anti-COL1 primary antibody (Abcam, Cambridge, MA). Control (buffer) value of immunoreactivity was set to 100.

[6] = Binding to Echelon PPI Arrays (x9B); set-up: key: 0=no binding; 1=low binding; 2=medium binding; 3=high binding; settings: 100 pmol PPI spot, colorimetric readout
Excerpt: Binding of immodulator peptides to Echelon PPI Arrays. PPI arrays were purchased from Echelon Biosciences (Sal Lake City, UT) and used according to the manufacturer's recommendations. Colorimetric readout from each 100 pmol PPI spot in the array is expressed as 0=no binding, 1=low binding, 2=medium binding and 3=high binding. […] In addition, IM3 and IM5 show slight binding to PI(3,4,5)P3.

## CC[C@H](C)[C@H](NC(=O)CNC(=O)[C@H](CCCNC(=N)N)NC(=O)[C@H](CCCCN)NC(=O)[C@H](CCCNC(=N)N)NC(=O)CNC(=O)[C@H](CCCNC(=N)N)NC(=O)[C@H](CO)NC(=O)[C@@H]1CCCN1C(=O)[C@H](CCCCN)NC(=O)[C@H](CS)NC(=O)[C@H](CCC(N)=O)NC(=O)[C@H](CCCCN)NC(=O)[C@H](CCCNC(=N)N)NC(=O)[C@H](CCCCN)NC(=O)[C@H](Cc1ccc(O)cc1)NC(=O)[C@H](Cc1ccccc1)NC(=O)CNC(=O)[C@H](CCCCN)NC(=O)[C@@H](N)CCCNC(=N)N)C(=O)N[C@@H](CS)C(=O)N[C@@H](Cc1c[nH]c2ccccc12)C(=O)O [IM5] (H-RKGFYKRKQCKPSRGRKRGICW-OH; N-terminus and C-terminus assumed)
[1]
  Percent Flowthrough: 3.6%
  Percent retained: 96.4%
[2]
  fluorescence of labeled peptide: 86.7±6.4
[3]
  fluorescence (iron binding): 130±77
[4]
  fluorescence: 6,802±336
[5]
  COL1 immunoreactivity in supernatant: 93
[6]
  binding to PI spot: 0
  binding to PI(3,4,5)P3 spot: 1
  binding to PI(4)P1 spot: 2
  binding to PI(4,5)P2 spot: 3

## CSCC[C@H](NC(=O)[C@H](CO)NC(=O)[C@@H](NC(=O)[C@H](CCC(=O)O)NC(=O)[C@H](CS)NC(=O)[C@H](CCC(N)=O)NC(=O)[C@H](CCCNC(=N)N)NC(=O)[C@H](CO)NC(=O)[C@H](Cc1c[nH]cn1)NC(=O)[C@H](Cc1ccc(O)cc1)NC(=O)[C@H](Cc1ccccc1)NC(=O)CNC(=O)[C@H](CC(N)=O)NC(=O)[C@@H](N)CCCCN)[C@@H](C)O)C(=O)N[C@@H](CC(=O)O)C(=O)NCC(=O)N[C@@H](CCC(=O)O)C(=O)N[C@@H](C)C(=O)NCC(=O)N[C@@H](CC(C)C)C(=O)N[C@@H](CS)C(=O)N[C@@H](Cc1c[nH]c2ccccc12)C(=O)O [IM1] (H-KNGFYHSRQCETSMDGEAGLCW-OH; N-terminus and C-terminus assumed)
[1]
  Percent Flowthrough: 100.0%
  Percent retained: 0%
[2]
  fluorescence of labeled peptide: 1.8±0.4
[4]
  fluorescence: 670±85
[5]
  COL1 immunoreactivity in supernatant: 98
[6]
  binding to PI spot: 0
  binding to PI(3,4,5)P3 spot: 0
  binding to PI(4)P1 spot: 0
  binding to PI(4,5)P2 spot: 0

## CSCC[C@H](NC(=O)[C@H](CCCCN)NC(=O)[C@H](CS)NC(=O)[C@H](CCC(N)=O)NC(=O)[C@H](CCCCN)NC(=O)[C@H](CC(C)C)NC(=O)[C@H](CC(N)=O)NC(=O)[C@H](Cc1ccc(O)cc1)NC(=O)[C@H](CC(C)C)NC(=O)CNC(=O)[C@H](Cc1c[nH]cn1)NC(=O)[C@@H](N)CCCCN)C(=O)N[C@@H](CO)C(=O)N[C@@H](CC(C)C)C(=O)N[C@@H](CC(N)=O)C(=O)NCC(=O)N[C@@H](CCC(N)=O)C(=O)N[C@@H](CCCNC(=N)N)C(=O)NCC(=O)N[C@@H](CCC(=O)O)C(=O)N[C@@H](CS)C(=O)N[C@@H](Cc1c[nH]c2ccccc12)C(=O)O [IM2]
[1]
  Percent Flowthrough: 100.0%
  Percent retained: 0%
[2]
  fluorescence of labeled peptide: 3.0±1.8
[4]
  fluorescence: 2±38
[5]
  COL1 immunoreactivity in supernatant: 109
[6]
  binding to PI spot: 0
  binding to PI(3,4,5)P3 spot: 0
  binding to PI(4)P1 spot: 0
  binding to PI(4,5)P2 spot: 0

## N=C(N)NCCC[C@H](NC(=O)CNC(=O)[C@H](CCCCN)NC(=O)[C@H](CO)NC(=O)[C@@H]1CCCN1C(=O)[C@H](CCCNC(=N)N)NC(=O)[C@H](CS)NC(=O)[C@H](CCC(N)=O)NC(=O)[C@H](CCCCN)NC(=O)[C@H](CCCCN)NC(=O)[C@H](CCCCN)NC(=O)[C@H](Cc1ccc(O)cc1)NC(=O)[C@H](Cc1ccccc1)NC(=O)CNC(=O)[C@H](CCCCN)NC(=O)[C@@H](N)CCCCN)C(=O)N[C@@H](CCCCN)C(=O)N[C@@H](CCCNC(=N)N)C(=O)NCC(=O)N[C@@H](Cc1ccccc1)C(=O)N[C@@H](CS)C(=O)N[C@@H](Cc1c[nH]c2ccccc12)C(=O)O [IM3] (H-KKGFYKKKQCRPSKGRKRGFCW-OH; N-terminus and C-terminus assumed)
[1]
  Percent Flowthrough: 2.3%
  Percent retained: 97.7%
[2]
  fluorescence of labeled peptide: 100.0±16.8
[3]
  fluorescence (iron binding): 200±29
[4]
  fluorescence: 6,572±129
[5]
  COL1 immunoreactivity in supernatant: 101
[6]
  binding to PI spot: 0
  binding to PI(3,4,5)P3 spot: 1
  binding to PI(4)P1 spot: 0
  binding to PI(4,5)P2 spot: 3

## CC(C)C[C@H](NC(=O)[C@H](C)NC(=O)[C@@H]1CCCN1C(=O)[C@H](Cc1c[nH]cn1)NC(=O)[C@H](CS)NC(=O)[C@H](CCC(N)=O)NC(=O)[C@H](CCCCN)NC(=O)[C@@H]1CCCN1C(=O)[C@H](Cc1c[nH]cn1)NC(=O)[C@H](Cc1ccccc1)NC(=O)[C@H](CC(N)=O)NC(=O)CNC(=O)[C@H](CC(N)=O)NC(=O)[C@@H](N)CCCNC(=N)N)C(=O)N[C@@H](CC(=O)O)C(=O)NCC(=O)N[C@@H](CCC(N)=O)C(=O)N[C@@H](CCCNC(=N)N)C(=O)NCC(=O)N[C@@H](CCCCN)C(=O)N[C@@H](CS)C(=O)N[C@@H](Cc1c[nH]c2ccccc12)C(=O)O [IM4] (H-RNGNFHPKQCHPALDGQRGKCW-OH; N-terminus and C-terminus assumed)
[1]
  Percent Flowthrough: 100.0%
  Percent retained: 0%
[2]
  fluorescence of labeled peptide: 7.2±1.7
[3]
  fluorescence (iron binding): 45±37
[4]
  fluorescence: 27±31
[5]
  COL1 immunoreactivity in supernatant: 105
[6]
  binding to PI spot: 0
  binding to PI(3,4,5)P3 spot: 0
  binding to PI(4)P1 spot: 0
  binding to PI(4,5)P2 spot: 0
